Test: xn = mol fraction of the nth substance listed
Conditions: Fluid (supercritical or subcritical phases)

CCCCC(COC(=O)C(=O)OC)OC(=O)C(=O)OC (stereo not given) [1,2-hexanediol bis-(methoxycarbonylformate)] + O=C=O
Conditions | mass density [kg/m3]
313 K, x1 = 0.00173 | 436.05
313 K, x1 = 0.00309 | 492.75
313 K, x1 = 0.00442 | 517.19
313 K, x1 = 0.00567 | 538.22
313 K, x1 = 0.00686 | 556.08
333 K, x1 = 0.00241 | 316.53
333 K, x1 = 0.00416 | 366.67
333 K, x1 = 0.00576 | 397.42
333 K, x1 = 0.00739 | 413.01
333 K, x1 = 0.00874 | 436.26
353 K, x1 = 0.00318 | 239.41
353 K, x1 = 0.00558 | 273.18
353 K, x1 = 0.00729 | 314.05
353 K, x1 = 0.00921 | 331.22
353 K, x1 = 0.01094 | 348.73

CCCCC(COC(=O)C(=O)OCC)OC(=O)C(=O)OCC (stereo not given) [1,2-hexanediol bis-(ethoxycarbonylformate)] + O=C=O
Conditions | mass density [kg/m3]
313 K, x1 = 0.00125 | 556.08
313 K, x1 = 0.00238 | 584.52
313 K, x1 = 0.00345 | 606.4
313 K, x1 = 0.00447 | 624.05
313 K, x1 = 0.00552 | 631.74
333 K, x1 = 0.00179 | 389.65
333 K, x1 = 0.00331 | 420.8
333 K, x1 = 0.00471 | 443.89
333 K, x1 = 0.00608 | 458.89
333 K, x1 = 0.00748 | 466.23
353 K, x1 = 0.00251 | 277.12
353 K, x1 = 0.00456 | 305.62
353 K, x1 = 0.00632 | 331.22
353 K, x1 = 0.00821 | 339.94
353 K, x1 = 0.00988 | 353.15

CCCCC(O)CO (stereo not given) [1,2-hexanediol] + O=C=O
Conditions | mass density [kg/m3]
313 K, x1 = 0.00073 | 677.07
313 K, x1 = 0.00136 | 730.15
313 K, x1 = 0.00197 | 756.91
313 K, x1 = 0.00256 | 778.16
313 K, x1 = 0.0031 | 802.54
333 K, x1 = 0.00091 | 547.92
333 K, x1 = 0.00169 | 589.92
333 K, x1 = 0.00241 | 619.81
333 K, x1 = 0.00312 | 638.84
333 K, x1 = 0.0038 | 655.62
353 K, x1 = 0.00109 | 457.46
353 K, x1 = 0.00196 | 506.95
353 K, x1 = 0.00281 | 530.61
353 K, x1 = 0.00363 | 549.26
353 K, x1 = 0.00442 | 563.72

Reference: the NIST ThermoML archive (doi:10.1016/j.jct.2012.08.020)
